In brackets after ≈: the same amount, converted by molar mass.
Experiments:
[1] = tested on: B. cereus ATCC 11778; assay: MIC, NCCLS broth microdilution assay; format: cell-based, Bacillus cereus; details: B. cereus ATCC 11778
[2] = tested on: C. albicans ATCC 38247; assay: MIC, antifungal assay; format: cell-based, Candida albicans; details: C. albicans ATCC 38247
[3] = tested on: E. faecalis ATCC 29212; assay: MIC, NCCLS broth microdilution assay; format: cell-based, Enterococcus faecalis; details: E. faecalis ATCC 29212
[4] = tested on: S. aureus ATCC 13709; assay: MIC, NCCLS broth microdilution assay; format: cell-based, Staphylococcus aureus; details: S. aureus ATCC 13709, methicillin sensitive strain (MSSA)
Text: (§1) In vitro biological activity data were collected for a variety of microorganisms, including Bacillus cereus (ATCC 11778), Staphylococcus aureus (ATCC 33591; ATCC 27660, a methicillin resistant strain (MRSA); ATCC 13709, a methicillin sensitive strain (MSSA)), Escherichia coli (ATCC 25922), Enterococcus faecalis (ATCC 29212), Streptococcus pneumoniae (ATCC 49619; ATCC 51422, a penicillin resistant strain (PRSP)), Enterococcus faecium (ATCC 51559, a vancomycin resistant strain (VRE)), and Staphylococcus epidermidis (ATCC 12228).
(§2) The minimal inhibition concentration (MIC) of these compounds was determined using the National Committee for Clinical Laboratory Standards (NCCLS) broth microdilution assay in microtiter plates, as set forth in: (1) the guidelines of the National Committee for Clinical Laboratory Standards (NCCLS) Document M7-A4 (NCCLS, 1997); (2) the guidelines of the National Committee for Clinical Laboratory Standards (NCCLS) Document M11-A4 (NCCLS, 1997); and (3) the guidelines and reference method of the National Committee for Clinical Laboratory Standards (NCCLS) Document M27 -T (NCCLS, 1995).

[5] = tested on: S. aureus ATCC 27660; assay: MIC, NCCLS broth microdilution assay; format: cell-based, Staphylococcus aureus; details: S. aureus ATCC 27660, methicillin resistant strain (MRSA)
Text: as §1, §2

[6] = tested on: S. aureus ATCC 33591; assay: MIC, NCCLS broth microdilution assay; format: cell-based, Staphylococcus aureus; details: S. aureus ATCC 33591
Text: as §1, §2

[7] = tested on: S. pneumoniae ATCC 49619; assay: MIC, NCCLS broth microdilution assay; format: cell-based, Streptococcus pneumoniae; details: S. pneumoniae ATCC 49619
[8] = tested on: E. coli ATCC 25922; assay: MIC, NCCLS broth microdilution assay; format: cell-based, Escherichia coli; details: E. coli ATCC 25922

Row | Structure (SMILES) | MIC ([1]; Bacillus cereus, ATCC11778, read-out: Minimum Inhibitory Concentration (MIC)) | MIC ([2]; Candida albicans, ATCC38247, read-out: Minimum Inhibitory Concentration (MIC)) | MIC ([3]; Enterococcus faecalis, ATCC29212, read-out: Minimum Inhibitory Concentration (MIC)) | MIC ([4]; Staphylococcus aureus, ATCC 13709 / MSSA, read-out: Minimum Inhibitory Concentration (MIC)) | MIC ([5]; Staphylococcus aureus, ATCC 27660 / MRSA, read-out: Minimum Inhibitory Concentration (MIC)) | MIC ([6]; Staphylococcus aureus, ATCC33591, read-out: Minimum Inhibitory Concentration (MIC)) | MIC ([7]; Streptococcus pneumoniae, ATCC49619, read-out: Minimum Inhibitory Concentration (MIC)) | MIC ([8]; Escherichia coli, ATCC25922, read-out: Minimum Inhibitory Concentration (MIC)) | Minimum Inhibitory Concentration (MIC) [1] | Minimum Inhibitory Concentration (MIC) [2] | Minimum Inhibitory Concentration (MIC) [3] | Minimum Inhibitory Concentration (MIC) [4] | Minimum Inhibitory Concentration (MIC) [5] | Minimum Inhibitory Concentration (MIC) [6] | Minimum Inhibitory Concentration (MIC) [7] | Minimum Inhibitory Concentration (MIC) [8]
1 | CN(CCCN)CCCNc1ncccc1C(=O)Nc1ccc(-c2cc3ccccc3o2)nc1 [Compound A-39] | 12 to 32 µg/mL (≈ 26.2 to 69.8 µM) | > 32 µg/mL | 12 to 32 µg/mL (≈ 26.2 to 69.8 µM) | 12 to 32 µg/mL (≈ 26.2 to 69.8 µM) | 12 to 32 µg/mL (≈ 26.2 to 69.8 µM) | 12 to 32 µg/mL (≈ 26.2 to 69.8 µM) | 12 to 32 µg/mL (≈ 26.2 to 69.8 µM) | > 32 µg/mL |  |  |  |  |  |  |  | 
2 | O=C(Nc1ccc(-c2cc3ccccc3[nH]2)cc1)c1nsc(NCCN2CCOCC2)c1Cl [Compound A-60] |  |  |  |  |  |  |  |  | >32 µg/mL | >32 µg/mL | >32 µg/mL | >32 µg/mL | >32 µg/mL | >32 µg/mL | >32 µg/mL | >32 µg/mL
3 | CN(CCCN)CCCNc1snc(C(=O)Nc2ccc(-c3cc4ccccc4s3)nc2)c1Cl [Compound A-71] |  |  |  |  |  |  |  |  | +++ (MIC ≦ 4) | ++ (4 < MIC < 12) | +++ (MIC ≦ 4) | +++ (MIC ≦ 4) | +++ (MIC ≦ 4) | +++ (MIC ≦ 4) | + (12 ≦ MIC ≦ 32) | +++ (MIC ≦ 4)
4 | Cc1cc(NC(=O)c2cccnc2NCCN2CCNCC2)ccc1-c1cc2ccccc2o1 [Compound A-28] |  |  |  |  |  |  |  |  | + (12 ≦ MIC ≦ 32) | + (12 ≦ MIC ≦ 32) | ++ (4 < MIC < 12) | ++ (4 < MIC < 12) | ++ (4 < MIC < 12) | ++ (4 < MIC < 12) | + (12 ≦ MIC ≦ 32) | >32 µg/mL
5 | O=C(Nc1ccc(-c2cc3ccccc3s2)nc1)c1nsc(NCCN2CCCCC2)c1Cl [Compound A-69] |  |  |  |  |  |  |  |  | >32 µg/mL | >32 µg/mL | >32 µg/mL | >32 µg/mL | >32 µg/mL | >32 µg/mL | >32 µg/mL | >32 µg/mL
6 | NCCNc1ncccc1C(=O)Nc1ccc(-c2cc3ccccc3o2)nc1 [Compound A-40] |  |  |  |  |  |  |  |  | + (12 ≦ MIC ≦ 32) | + (12 ≦ MIC ≦ 32) | ++ (4 < MIC < 12) | ++ (4 < MIC < 12) | ++ (4 < MIC < 12) | + (12 ≦ MIC ≦ 32) | >32 µg/mL | + (12 ≦ MIC ≦ 32)
7 | CN(CCCN)CCCNc1cc(Cl)ccc1C(=O)Nc1ccc(-c2cc3ccccc3o2)nc1 [Compound A-41] |  |  |  |  |  |  |  |  | ++ (4 < MIC < 12) | ++ (4 < MIC < 12) | +++ (MIC ≦ 4) | +++ (MIC ≦ 4) | +++ (MIC ≦ 4) | +++ (MIC ≦ 4) | + (12 ≦ MIC ≦ 32) | ++ (4 < MIC < 12)
8 | CN1CCN(CCNc2snc(C(=O)Nc3ccc(-c4cc5ccccc5[nH]4)cc3)c2Cl)CC1 [Compound A-61] |  |  |  |  |  |  |  |  | >32 µg/mL | +++ (MIC ≦ 4) | >32 µg/mL | >32 µg/mL | >32 µg/mL | >32 µg/mL | >32 µg/mL | >32 µg/mL

Source: US7498349B2, “Biaryl compounds having anti-infective activity” (Genesoft Pharmaceuticals, Inc., priority 2002, dated 2009)
